Six compounds from patent publication US20240376129A1, “METALLODRUG THERAPEUTIC COMPOUNDS AND PRODRUGS OF METALLODRUG THERAPEUTIC COMPOUNDS” (Dublin City University, priority 2021, published 2024) can be followed below.

For one assay, the system named is supercoiled pUC19 DNA. Put plainly: DNA condensation of supercoiled pUC19 by gel electrophoresis. Format: biochemical. Conditions: for DNA condensation / aggregation effect: supercoiled pUC19, tested at 100 and 500 μM, 37° C., 90 min; for DNA condensation activity: supercoiled pUC19, at 100 μM. As for the experimental part:
Preparation of solutions. Tri-Click samples were initially prepared in DMF and further diluted in HEPES buffer (80 mM). Metal complexes of the Tri-Click series were prepared in-situ by co-incubating with copper(II) nitrate trihydrate, manganese (II) chloride tetrahydrate or zinc(II) acetate dihydrate for 30 min at 37° C. prior to DNA addition.
DNA nuclease and condensation studies. Reactions were carried out in 80 mM HEPES (pH 7.4) unless otherwise stated and followed the general procedure: a total volume of 20 μL with 25 mM NaCl, 400 ng pUC19 at varying concentrations of test compounds (0.25-500 μM) were incubated at 37° C. for either 90 min, 6 h, 12 h or 24 h. Reactions were quenched by adding 6× loading buffer (Fermentas) containing 10 mM Tris-HCl, 0.03% bromophenol blue, 0.03% xylene cyanole FF, 60% glycerol, 60 mM EDTA and samples were loaded onto an agarose gel (1.2%) containing 4 μL EtBr. Electrophoresis was completed at 70 V for 1 h in 1×TAE buffer. DNA studies conducted in the presence of reductant were supplemented with 1 mM Na-L-ascorbate and incubated at 37° C. for 30 min. Electrophoresis was carried out at 70 V for 90 minutes in 1×TAE buffer and photographed using a UV transilluminator.
The DNA recognition properties of the TC series, along with the control compounds, were probed using electrophoresis experiments with supercoiled pUC19 DNA. TC1 was examined across a wide concentration range and found to condense DNA at high concentrations between 250 and 500 μM (FIG. 2a, lanes 11-13).

Another assay relates to calf-thymus DNA (ctDNA). Put plainly: Competitive ethidium bromide displacement assay, calf-thymus DNA. Type of assay: binding. Here is the method:
(§1) Competitive ethidium bromide displacement assay. The DNA binding affinity of the tripodal series was determined over a 2 h time period using calf-thymus DNA and synthetic alternating co-polymers poly[d(A-T)2)] and poly[d(G-C)2] by ethidium bromide fluorescence quenching in a similar manner to the high throughput method previously reported by Kellett et al. (McCann, M., McGinley, J., Ni, K., O'Connor, M., Kavanagh, K., McKee, V., Colleran, J., Devereux, M., Gathergood, N., Barron, N. et al. (2013) A new phenanthroline-oxazine ligand: synthesis, coordination chemistry and atypical DNA binding interaction. Chem. Commun., 49, 2341-2343). Each drug concentration was measured in triplicate, on at least two separate occasions, and the apparent binding constants were calculated using Kapp=Ke×12.6/C50 where Ke=9.5×10^6 M^−1.

Another assay has as its system poly[d(A-T)2]. Put plainly: Competitive ethidium bromide displacement assay, poly[d(A-T)2]. Format: binding. Particulars: A-T duplex polymer, EtBr displacement. As for the experimental part:
as §1

The subject of the next assay is poly[d(G-C)2]. In words: Competitive ethidium bromide displacement assay, poly[d(G-C)2]. Type of assay: binding. Conditions: EtBr displacement. Here is the method: as §1

In the case of `Cc1c(Cn2cc(-c3cccc(N(C)C)c3)nn2)c(C)c(Cn2cc(-c3cccc(N(C)C)c3)nn2)c(C)c1Cn1cc(-c2cccc(N(C)C)c2)nn1` [TC6, Tri-Click 3-ethynyl-N,N-dimethylaniline], in the assay on supercoiled pUC19 DNA, the “DNA condensation / aggregation effect” value was “slight aggregation effects”.

In the case of `Cc1c(Cn2cc(-c3ccc(N(C)C)cc3)nn2)c(C)c(Cn2cc(-c3ccc(N(C)C)cc3)nn2)c(C)c1Cn1cc(-c2ccc(N(C)C)cc2)nn1` [TC7, Tri-Click 4-ethynyl-N,N-dimethylaniline], the “DNA condensation / aggregation effect” value in the assay with supercoiled pUC19 DNA is “slight aggregation effects”. As for `Cc1c(CN)c(C)c(CN)c(C)c1CN` [T1, 2,4,6-Tris-(aminomethyl)-mesitylene], in the assay on supercoiled pUC19 DNA, the “DNA condensation / aggregation effect” value is given as “mildly condense pUC19”. Consider `Cc1c(Cn2cc(CN)nn2)c(C)c(Cn2cc(CN)nn2)c(C)c1Cn1cc(CN)nn1` [TC1, Tri-Click propargylamine], for which the “apparent DNA binding constant (Kapp)” value with calf-thymus DNA (ctDNA) (ctDNA, EtBr displacement) is on record as ~10^6 M^−1; in the assay with poly[d(A-T)2], ~10^6 M^−1; with poly[d(G-C)2], ~10^5 M^−1. Moreover, the “binding affinity to duplex DNA (summary)” value with calf-thymus DNA (ctDNA) (duplex DNA, conclusion summary over ctDNA and co-polymers) is reported as 10^5-10^6 M^−1. Take “2,4,6-Tris-(1,2-ethanediamine)-mesitylene [T2]”: the DNA condensation activity entry with supercoiled pUC19 DNA is “highly active”.

Consider “2,4,6-Tris-(1,3-propanediamine)-mesitylene [T3]”, for which the DNA condensation activity entry in the assay with supercoiled pUC19 DNA is listed as “highly active”.
